Experimental data taken from paper PMC6378217, “The lysyl oxidase like 2/3 enzymatic inhibitor, PXS‐5153A, reduces crosslinks and ameliorates fibrosis” (Journal of Cellular and Molecular Medicine, 2018).
pIC50: −log10 of the molar value.

Assays:
LOXL2 [1] = assay: LOXL2 enzymatic activity across all mammalian species tested; assay type: biochemical
Description: The measurement of the enzymatic activity of all lysyl oxidase family members was based on the detection of hydrogen peroxide with an Amplex‐Red oxidation assay, as described in Zhou et al26 Recombinant human semicarbazide sensitive amine oxidase (SSAO/VAP1), diamine oxidase (DAO) and monoamine oxidases A and B (MAO‐A and MAO‐B) assays were performed as previously described.27 For detailed enzymatic procedures, see supporting information.
The measurement of the enzymatic activity of all lysyl oxidase family members was based on the detection of hydrogen peroxide with an Amplex-Red oxidation assay, as described in Zhou et al.[1]; miniaturised in 384 well format, with the appropriate combination of substrate and assay buffer for each individual enzyme. After a 30 minute pre-incubation of the enzyme at 37 °C with the test compound (or with different incubation times for the time-dependency assay), one volume of reaction mixture containing 120 μM Amplex Red (AR) (Life Technologies), 1.5 U/mL horseradish peroxidase (HRP) (Sigma-Aldrich) and the specific substrate was added to each sample. The relative fluorescence units (RFU) were then measured every 2.5 minutes for 30 minutes at 37°C, excitation 565 nm and emission 590, on a BMG Clariostar Microplate Reader. […]

[2] = molecular target: Transporter, Norepinephrine (NET) (Homo sapiens, UniProt P23975); assay: Eurofins Hit Profiling Screen; assay type: binding; conditions: 10 μmol/L
Muscarinic M2 = Muscarinic M2 (Homo sapiens, UniProt P08172); assay: Eurofins Hit Profiling Screen; assay type: binding; conditions: 10 μmol/L
LOXL2 [3] = molecular target: T1, LOXL2 (Homo sapiens, UniProt Q9Y4K0); assay: Collagen oxidation assay; assay type: biochemical; design: purchased R&D Systems; conditions: 20 nmol/L rhLOXL2, different concentrations of PXS-5153A, slope at 20-40 minute
T1 sequence (Q9Y4K0 26-774): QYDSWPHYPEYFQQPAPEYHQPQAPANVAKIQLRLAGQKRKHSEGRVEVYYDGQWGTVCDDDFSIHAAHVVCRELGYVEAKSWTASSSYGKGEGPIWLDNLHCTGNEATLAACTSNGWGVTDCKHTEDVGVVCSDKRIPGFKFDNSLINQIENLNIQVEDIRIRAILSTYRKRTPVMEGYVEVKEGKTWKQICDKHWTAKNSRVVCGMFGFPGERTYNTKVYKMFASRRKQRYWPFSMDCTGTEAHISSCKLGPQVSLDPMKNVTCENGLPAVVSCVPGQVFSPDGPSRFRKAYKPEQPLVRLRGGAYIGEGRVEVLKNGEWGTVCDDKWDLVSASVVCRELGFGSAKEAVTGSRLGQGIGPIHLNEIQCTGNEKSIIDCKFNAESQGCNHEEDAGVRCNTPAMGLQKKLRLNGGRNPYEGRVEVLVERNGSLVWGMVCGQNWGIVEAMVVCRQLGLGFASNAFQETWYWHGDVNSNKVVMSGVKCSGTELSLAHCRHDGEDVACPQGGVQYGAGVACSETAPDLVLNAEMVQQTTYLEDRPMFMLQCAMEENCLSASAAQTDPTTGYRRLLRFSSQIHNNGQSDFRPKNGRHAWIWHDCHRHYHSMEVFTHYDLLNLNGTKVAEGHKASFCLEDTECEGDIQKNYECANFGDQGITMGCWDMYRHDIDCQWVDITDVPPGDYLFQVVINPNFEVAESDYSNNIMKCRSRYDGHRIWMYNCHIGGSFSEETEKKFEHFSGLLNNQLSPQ
Description: Collagen oxidation assay was based on the release of hydrogen peroxide as previously described27 and detailed in the supporting information. Briefly, collagen was combined with rhLOXL2 with or without the pan‐lysyl oxidase inhibitor BAPN (β‐aminoproprionitrile, 100 μmol/L, Sigma‐Aldrich) or PXS‐5153A. An Amplex reaction mixture was added into each well. The slope per minute of the kinetic curves for each sample was calculated using MARS data analysis software (BMG labtech) in the linear phase (between the 20 and 40 minute time points).
Collagen oxidation assay was based on the release of hydrogen peroxide as described previously described. In a 384 black well plate, 25 μL of collagen (rat tail, type I, Thermo Fisher, 1.5 mg/mL in 50 mM sodium borate buffer, pH 8.2) was combined with 25 μL rhLOXL2 (R&D Systems) with or without the pan-lysyl oxidase inhibitor BAPN (100 μM, Sigma-Aldrich) or PXS-5153A. A reaction mixture using AR (120 μM; Life Technologies), HRP (1.5 U/mL; Sigma-Aldrich) was prepared in 50 mM sodium borate buffer. […] The relative fluorescence units (RFU) were read every 1 minute for 3 hours at 37°C, excitation 565 nm and emission 590 (Clariostar, BMG labtech). The slope per minute of the kinetic curves for each sample was calculated using MARS data analysis software (BMG labtech) in the linear phase (between the 20-40 minute time points).

LOXL2 [4] = molecular target: T1, LOXL2; assay: In vitro crosslinking assay; assay type: biochemical; design: purchased R&D Systems; conditions: 200 nmol/L PXS-5153A, 20 nmol/L rhLOXL2 daily for 5 days, crosslinks on day 7
Description: About 200 μL of 3 mg/mL collagen (rat tail, type I, Thermo Fisher) was combined with 800 μL of 50 mmol/L sodium borate buffer (pH 8.2) and 20 nmol/L of rhLOXL2 (with or without inhibitor, PXS‐5153A 200 nmol/L). Enzyme/inhibitor were replenished daily for 5 days. Samples were incubated at 37°C and crosslinks were extracted on day 7.
About 10mg of freeze‐dried samples were reduced with NaBH4. Pellet then underwent acid hydrolysis in 6 mol/L HCl at 100°C for 24 hours. Hydroxyproline and crosslinks were extracted from the hydrolysate using an automated solid phase extraction system (Gilson GX‐271 ASPECA system). After extraction and drying, hydroxyproline and crosslinks were analysed by UHPLC‐ESI‐MS/MS on a Thermo Dionex UHPLC and TSQ Endura triple quad mass spectrometer. Total protein was quantified in the samples using a commercially available kit (QuickZyme Biosciences, Leiden, The Netherlands). For detailed procedures, see supporting information.

[5] = molecular target: Serotonin (5-Hydroxytryptamine) 5-HT2B (Homo sapiens, UniProt P41595); assay: Eurofins Hit Profiling Screen; assay type: binding; conditions: 10 μmol/L
Rolipram = assay: Eurofins Hit Profiling Screen; assay type: binding; conditions: 10 μmol/L
Adrenergic β1 = Adrenergic β1 (Homo sapiens, UniProt P08588); assay: Eurofins Hit Profiling Screen; assay type: binding; conditions: 10 μmol/L
Dopamine D1 = Dopamine D1 (Homo sapiens, UniProt P21728); assay: Eurofins Hit Profiling Screen; assay type: binding; conditions: 10 μmol/L
Dopamine D1, sequence (P21728 whole entry): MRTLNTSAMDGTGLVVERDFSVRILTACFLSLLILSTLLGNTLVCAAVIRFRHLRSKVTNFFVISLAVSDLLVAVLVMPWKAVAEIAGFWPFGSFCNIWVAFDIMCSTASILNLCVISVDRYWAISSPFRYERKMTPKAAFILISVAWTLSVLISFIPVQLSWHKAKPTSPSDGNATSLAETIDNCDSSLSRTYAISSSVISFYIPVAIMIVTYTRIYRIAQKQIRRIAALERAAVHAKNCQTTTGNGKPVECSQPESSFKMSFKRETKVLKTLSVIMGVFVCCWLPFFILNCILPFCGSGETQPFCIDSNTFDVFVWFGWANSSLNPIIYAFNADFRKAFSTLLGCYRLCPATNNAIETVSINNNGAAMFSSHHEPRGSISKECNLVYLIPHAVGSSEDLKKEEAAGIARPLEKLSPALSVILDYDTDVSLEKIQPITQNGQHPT

Muscarinic M2, sequence (P08172 whole entry): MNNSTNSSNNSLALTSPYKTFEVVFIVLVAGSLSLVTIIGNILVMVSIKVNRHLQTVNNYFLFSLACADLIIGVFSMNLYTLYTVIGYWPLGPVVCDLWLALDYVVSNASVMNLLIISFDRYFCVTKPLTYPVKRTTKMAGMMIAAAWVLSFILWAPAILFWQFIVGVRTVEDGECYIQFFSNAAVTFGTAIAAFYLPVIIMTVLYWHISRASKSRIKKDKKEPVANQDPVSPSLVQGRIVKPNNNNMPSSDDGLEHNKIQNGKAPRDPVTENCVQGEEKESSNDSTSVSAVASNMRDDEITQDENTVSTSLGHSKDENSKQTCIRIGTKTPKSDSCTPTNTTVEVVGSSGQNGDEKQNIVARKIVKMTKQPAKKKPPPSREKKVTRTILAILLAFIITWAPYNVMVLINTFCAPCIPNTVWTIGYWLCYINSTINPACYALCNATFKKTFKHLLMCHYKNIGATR
Adrenergic β1, sequence (P08588 whole entry): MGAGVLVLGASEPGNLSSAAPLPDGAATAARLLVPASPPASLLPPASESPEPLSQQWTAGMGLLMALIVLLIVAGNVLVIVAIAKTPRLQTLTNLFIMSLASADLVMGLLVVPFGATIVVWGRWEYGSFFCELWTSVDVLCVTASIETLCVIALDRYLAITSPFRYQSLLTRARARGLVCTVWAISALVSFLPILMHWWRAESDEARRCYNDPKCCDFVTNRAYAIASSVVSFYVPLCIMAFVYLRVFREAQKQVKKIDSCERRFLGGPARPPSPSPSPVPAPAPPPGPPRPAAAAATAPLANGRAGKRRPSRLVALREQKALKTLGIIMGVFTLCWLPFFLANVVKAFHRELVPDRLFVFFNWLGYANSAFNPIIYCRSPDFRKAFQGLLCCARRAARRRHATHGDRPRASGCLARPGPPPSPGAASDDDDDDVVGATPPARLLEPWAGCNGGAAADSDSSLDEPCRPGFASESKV
Transporter, Norepinephrine (NET), sequence (P23975 whole entry): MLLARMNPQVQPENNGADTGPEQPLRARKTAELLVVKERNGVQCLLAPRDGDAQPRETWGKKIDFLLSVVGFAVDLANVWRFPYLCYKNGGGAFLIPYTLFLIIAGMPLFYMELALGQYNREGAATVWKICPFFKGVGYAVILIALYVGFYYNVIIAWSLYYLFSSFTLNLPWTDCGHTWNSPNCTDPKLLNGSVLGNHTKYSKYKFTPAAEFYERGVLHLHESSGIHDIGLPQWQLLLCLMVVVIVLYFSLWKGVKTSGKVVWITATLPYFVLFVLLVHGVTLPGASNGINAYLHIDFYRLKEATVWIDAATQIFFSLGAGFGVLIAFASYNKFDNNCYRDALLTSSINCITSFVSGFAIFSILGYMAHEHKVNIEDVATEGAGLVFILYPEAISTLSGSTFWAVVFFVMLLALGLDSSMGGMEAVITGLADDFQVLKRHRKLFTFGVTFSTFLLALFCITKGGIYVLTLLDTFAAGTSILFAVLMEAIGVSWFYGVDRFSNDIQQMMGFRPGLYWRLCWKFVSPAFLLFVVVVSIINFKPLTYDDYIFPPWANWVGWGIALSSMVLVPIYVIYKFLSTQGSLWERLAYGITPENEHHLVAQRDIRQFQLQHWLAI
Serotonin (5-Hydroxytryptamine) 5-HT2B, sequence (P41595 whole entry): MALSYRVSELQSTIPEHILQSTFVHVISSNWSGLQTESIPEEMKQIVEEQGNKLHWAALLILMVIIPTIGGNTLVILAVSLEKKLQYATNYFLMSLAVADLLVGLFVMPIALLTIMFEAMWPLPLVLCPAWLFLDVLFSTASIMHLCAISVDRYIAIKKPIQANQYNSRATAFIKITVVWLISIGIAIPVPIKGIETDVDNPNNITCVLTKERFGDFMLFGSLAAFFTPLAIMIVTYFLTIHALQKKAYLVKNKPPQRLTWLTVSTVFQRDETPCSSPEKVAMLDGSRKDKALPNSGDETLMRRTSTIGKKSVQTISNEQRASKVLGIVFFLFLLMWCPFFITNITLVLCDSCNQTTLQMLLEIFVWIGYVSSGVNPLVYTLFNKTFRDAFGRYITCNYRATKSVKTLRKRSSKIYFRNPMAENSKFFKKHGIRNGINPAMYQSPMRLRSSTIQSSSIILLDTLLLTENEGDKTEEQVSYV

## Cc1c(-c2cccc(S(=O)(=O)N(C)C)c2)c2ncccc2n1C/C(F)=C/CN.Cl.Cl [PXS-5153A]
LOXL2 [1]
  pIC50: > 7.40
[2]
  % inhibition: 15%
Muscarinic M2
  % inhibition: 58%
LOXL2 [3]
  collagen oxidation: impeding collagen oxidation
LOXL2 [4]
  crosslink formation DHLNL, HLNL, PYD, DPD: prevented all crosslink formation
[5]
  % inhibition: 33%
Rolipram
  % inhibition: 28%
Adrenergic β1
  % inhibition: 3%
Dopamine D1
  % inhibition: 6%
